According to US6737383B1, “Herbicidal oxadiazolidines” (priority 1999, dated 2004):

Tests used:
wheat = test: Test B pre/postemergence wheat; type: in vivo, Triticum aestivum
Method in brief: (§1)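 Herbicidal effect was estimated by eye on a ten-point control scale after plants spent twelve to sixteen days in a greenhouse following soil or foliar treatment. Foliar sprays targeted plants at one to four leaves; all doses were formulated in a non-phytotoxic solvent with surfactant.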

rape = test: Test B pre/postemergence rape; type: in vivo, Brassica napus
Method in brief: as §1

pigweed = test: Test B pre/postemergence pigweed; type: in vivo, Amaranthus retroflexus
Method in brief: as §1

purple nutsedge = test: Test B pre/postemergence purple nutsedge; type: in vivo, Cyperus rotundus
Method in brief: as §1

smallflower flatsedge = test: Test B flood test smallflower flatsedge; type: in vivo, Cyperus difformis
Method in brief: (§2)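 Flood test on plants grown to the 2-leaf stage; treated plants kept in greenhouse twelve to sixteen days, then visually rated against controls on a 0 (no effect) to 10 (complete control) scale.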

soybean = test: Test B pre/postemergence soybean; type: in vivo, Glycine max
Method in brief: as §1

rice = test: Test B flood test rice; type: in vivo, Oryza sativa
Method in brief: as §2

giant foxtail = test: Test B pre/postemergence giant foxtail; type: in vivo, Setaria faberii
Method in brief: as §1

sugar beet = test: Test B pre/postemergence sugar beet; type: in vivo, Beta vulgaris
Method in brief: as §1

morningglory = test: Test B pre/postemergence morningglory; type: in vivo, Ipomoea hederacea
Method in brief: as §1

wild oat = test: Test B pre/postemergence wild oat; type: in vivo, Avena fatua
Method in brief: as §1

bedstraw = test: Test B pre/postemergence bedstraw; type: in vivo, Galium aparine
Method in brief: as §1

velvetleaf = test: Test B pre/postemergence velvetleaf; type: in vivo, Abutilon theophrasti
Method in brief: as §1

bamyardgrass = test: Test B flood test barnyardgrass; type: in vivo, Echinochloa crus-galli
Method in brief: as §2

blackgrass = test: Test B pre/postemergence blackgrass; type: in vivo, Alopecurus myosuroides
Method in brief: as §1

duck salad = test: Test B flood test duck salad; type: in vivo, Heteranthera limosa
Method in brief: as §2

[1] = Preemergence, Rate 62 g/ha, scale of 0 to 10 where 0 is no effect and 10 is complete control
[2] = Preemergence, Rate 250 g/ha, scale of 0 to 10 where 0 is no effect and 10 is complete control
[3] = Preemergence, Rate 500 g/ha, scale of 0 to 10 where 0 is no effect and 10 is complete control
[4] = Rate 125 g/ha, Postemergence, scale of 0 to 10 where 0 is no effect and 10 is complete control
[5] = Rate 125 g/ha, Preemergence, scale of 0 to 10 where 0 is no effect and 10 is complete control
[6] = Rate 250 g/ha, Postemergence, scale of 0 to 10 where 0 is no effect and 10 is complete control
[7] = Rate 500 g/ha, Postemergence, scale 0 to 10, 0 no effect, 10 complete control
[8] = Rate 62 g/ha, headed Pre-emergence (flood test species), scale 0 to 10 (0 no effect, 10 complete control)
[9] = Rate 125 g/ha, Pre-emergence, flood test species, scale 0 to 10 where 0 is no effect and 10 is complete control
[10] = Rate 250 g/ha, Pre-emergence, flood-test species, scale 0 to 10, 0 is no effect, 10 is complete control
[11] = Rate 500 g/ha, Pre-emergence, flood test species, scale 0 to 10 (0 no effect, 10 complete control)
[12] = Rate 62 g/ha, Postemergence, scale of 0 to 10 where 0 is no effect and 10 is complete control

CC(C)N(C(=O)n1oc(=O)n(-c2ccsc2)c1=O)c1ccc(F)cc1 [Compound 272]
Wheat plant response rating (wheat; [1]): 0
Wheat plant response rating (wheat; [2]): 0
Plant response rating, Wheat (wheat; [3]): 0
Wheat plant response rating (wheat; [4]): 0
Wheat plant response rating (wheat; [5]): 0
Plant response rating, Wheat (wheat; [6]): 0
Wheat plant response rating (wheat; [7]): 0
Rape plant response rating (rape; [1]): 0
Rape plant response rating (rape; [2]): 0
Plant response rating, Rape (rape; [3]): 0
Rape plant response rating (rape; [4]): 0
Rape plant response rating (rape; [5]): 0
Plant response rating, Rape (rape; [6]): 0
Rape plant response rating (rape; [7]): 0
Redroot pigweed plant response rating (pigweed; [1]): 0
Redroot pigweed plant response rating (pigweed; [2]): 0
Plant response rating, Redroot pigweed (pigweed; [3]): 3
Redroot pigweed plant response rating (pigweed; [4]): 0
Redroot pigweed plant response rating (pigweed; [5]): 0
Plant response rating, Redroot pigweed (pigweed; [6]): 2
Redroot pigweed plant response rating (pigweed; [7]): 4
Nutsedge plant response rating (purple nutsedge; [1]): 0
Nutsedge plant response rating (purple nutsedge; [2]): 0
Plant response rating, Nutsedge (purple nutsedge; [3]): 0
Nutsedge plant response rating (purple nutsedge; [4]): 0
Nutsedge plant response rating (purple nutsedge; [5]): 0
Plant response rating, Nutsedge (purple nutsedge; [6]): 0
Nutsedge plant response rating (purple nutsedge; [7]): 0
S. Flatsedge plant response rating (smallflower flatsedge; [8]): 0
S. Flatsedge plant response rating (smallflower flatsedge; [9]): 0
S. Flatsedge plant response rating (smallflower flatsedge; [10]): 0
S. Flatsedge plant response rating (smallflower flatsedge; [11]): 0
Soybean plant response rating (soybean; [1]): 0
Soybean plant response rating (soybean; [2]): 0
Plant response rating, Soybean (soybean; [3]): 0
Soybean plant response rating (soybean; [4]): 1
Soybean plant response rating (soybean; [5]): 0
Plant response rating, Soybean (soybean; [6]): 1
Soybean plant response rating (soybean; [7]): 1
Rice plant response rating (rice; [8]): 0
Rice plant response rating (rice; [9]): 0
Rice plant response rating (rice; [10]): 0
Rice plant response rating (rice; [11]): 0
Giant foxtail plant response rating (giant foxtail; [1]): 2
Giant foxtail plant response rating (giant foxtail; [2]): 6
Plant response rating, Giant foxtail (giant foxtail; [3]): 6
Giant foxtail plant response rating (giant foxtail; [4]): 0
Giant foxtail plant response rating (giant foxtail; [5]): 5
Plant response rating, Giant foxtail (giant foxtail; [6]): 0
Giant foxtail plant response rating (giant foxtail; [7]): 0
Sugarbeets plant response rating (sugar beet; [1]): 0
Sugarbeets plant response rating (sugar beet; [2]): 0
Plant response rating, Sugarbeets (sugar beet; [3]): 0
Sugarbeets plant response rating (sugar beet; [4]): 0
Sugarbeets plant response rating (sugar beet; [5]): 0
Plant response rating, Sugarbeets (sugar beet; [6]): 0
Sugarbeets plant response rating (sugar beet; [7]): 0
Morningglory plant response rating (morningglory; [1]): 0
Morningglory plant response rating (morningglory; [2]): 0
Plant response rating, Morningglory (morningglory; [3]): 0
Morningglory plant response rating (morningglory; [4]): 1
Morningglory plant response rating (morningglory; [5]): 0
Plant response rating, Morningglory (morningglory; [6]): 1
Morningglory plant response rating (morningglory; [7]): 7
Wild oats plant response rating (wild oat; [1]): 0
Wild oats plant response rating (wild oat; [2]): 0
Plant response rating, Wild oats (wild oat; [3]): 2
Wild oats plant response rating (wild oat; [4]): 0
Plant response rating, Wild oats (wild oat; [6]): 0
Wild oats plant response rating (wild oat; [7]): 0
Bedstraw plant response rating (bedstraw; [1]): 0
Bedstraw plant response rating (bedstraw; [2]): 0
Plant response rating, Bedstraw (bedstraw; [3]): 3
Bedstraw plant response rating (bedstraw; [12]): 0
Bedstraw plant response rating (bedstraw; [4]): 0
Bedstraw plant response rating (bedstraw; [5]): 0
Plant response rating, Bedstraw (bedstraw; [6]): 0
Bedstraw plant response rating (bedstraw; [7]): 4
Velvetleaf plant response rating (velvetleaf; [1]): 0
Velvetleaf plant response rating (velvetleaf; [2]): 0
Plant response rating, Velvetleaf (velvetleaf; [3]): 0
Velvetleaf plant response rating (velvetleaf; [4]): 0
Velvetleaf plant response rating (velvetleaf; [5]): 0
Plant response rating, Velvetleaf (velvetleaf; [6]): 0
Velvetleaf plant response rating (velvetleaf; [7]): 0
Barnyardgrass plant response rating (bamyardgrass; [8]): 0
Barnyardgrass plant response rating (bamyardgrass; [9]): 0
Barnyardgrass plant response rating (bamyardgrass; [10]): 0
Barnyardgrass plant response rating (bamyardgrass; [11]): 0
Blackgrass plant response rating (blackgrass; [1]): 0
Blackgrass plant response rating (blackgrass; [2]): 0
Plant response rating, Blackgrass (blackgrass; [3]): 0
Blackgrass plant response rating (blackgrass; [12]): 0
Blackgrass plant response rating (blackgrass; [4]): 0
Blackgrass plant response rating (blackgrass; [5]): 0
Plant response rating, Blackgrass (blackgrass; [6]): 2
Blackgrass plant response rating (blackgrass; [7]): 6
Ducksalad plant response rating (duck salad; [8]): 0
Ducksalad plant response rating (duck salad; [9]): 0
Ducksalad plant response rating (duck salad; [10]): 0
Ducksalad plant response rating (duck salad; [11]): 0
